The record followed here is patent publication US5157032A, “Mixed ligand complexes and uses thereof as binding agents and probes to DNA” (The Trustees of Columbia University In The City of New York, priority 1990, dated 1992).

Entries after “also recorded” stand apart in the source; their conditions may differ.

Assay [1] concerns CT DNA. Nature of the assay: Luminescence in presence of CT DNA. The format is binding, calf. On the procedure:
While a linear relationship of the luminescence is observed for Ru(bpy)2 (dppz)^2+ in iso-propanol as a function of temperature this is not the behavior seen when the complex is bound to DNA. When the complex, Ru(bpy)2 (dppz)^2+ is bound to cal-thymus (CT) DNA (100 μM) under low salt conditions at 25 ° C. a biexponential lifetime is observed. A short component which is assigned to a surface interaction, and a long component which is assigned to an intercalated species. As is shown in Table 1, the short component remains relatively unchanged until 70 ° C. when there is an abrupt decrease in the lifetime to 45 ns at 85° C. […] Under these conditions the CT DNA melts and the observed lifetimes of the complexes are similar to those lifetimes measured with single stranded DNA. […] In fact there is an abrupt decrease in the quantum yield at the melting temperature at this salt concentration. This decrease in quantum yield may be explained thus: when the complex is bound to the double stranded form the quenching ability of H2 O is inhibited while at the melting temperature the single stranded form of DNA cannot protect the complex from quenching of H2 O and therefore the observed luminescence is not as intense.

Assay [2] deals with poly d(GC).d(GC) B-form DNA. Nature of the assay: Luminescence with poly d(GC).d(GC), B-form. The assay is classed as binding. On the procedure:
(§1) FIG. 21A to 21C: Luminescent Enhancement of Ru(bpy)2 (dppz)^2+ with B and Z-form DNA a. Ru(bpy)2 (dppz)^2+ 10 μM in buffer R=50.0 mM NaCl, 5.0 mM Tris-OH, pH=7.0. b. Ru(bpy)2 (dppz)2 10 μM in buffer R, with poly d(GC) d(GC) 100 μM under conditions providing B-form DNA. c. Ru(bpy)2 (dppz)^2+ 10 μM in buffer R-L=20.0 mM NaCl, 2.0 mM Tris-OH, pH 7.0, Co(NH3)6^3+ 4μM., with poly d(GC) d(GC) 100 μM under conditions providing Z-form DNA. All λex =482 nm.
As expected, preparations of Ru(bpy)2(dppz)^2+ (10 μM) in buffer R(^9) and buffer R-L(^10) (pH=7.0) produced species that were nonluminescent solutions (FIG. 21a) (λirr =482 nm).

Assay [3] relates to poly d(GC).d(GC) Z-form DNA. Put plainly: Luminescence with poly d(GC).d(GC), Z-form. The assay is classed as binding. On the procedure: as §1
Preparations of Ru(bpy)2 (dppz)^2+ (10 μM) in buffer R^(40) and buffer R-L^(41) (pH 7.0) produced species that were nonluminescent solutions (FIG. 21a) (λirr =482 nm). […] Luminescent behavior such as this can be attributed to a highly intercalated species. This must be due to the complex being bound to the Z-form and not due to lower salt conditions (or added Co(NH3)6^3+) as the under the same Z-form producing conditions, calf thymus DNA produces the expected B-form luminescence.
An interesting twist to the luminescent properties of Ru(bpy)2 (dppz)^2+ is observed when this complex is bound to the left handed helix Z-form DNA. […] Luminescent behavior such as this can be attributed to a highly intercalated species. This must be due to the complex being bound to the Z-from nand not due to lower salt conditions (or added Co(NH3)6^3+) as the under the same Z-form producing conditions, calf thymus DNA produces the expected B-from luminescence.

Assay [4] concerns poly d(AT).d(AT). Nature of the assay: Luminescence with poly d(AT).d(AT). To be noted: Buffer (50.0 mM NaCl), 25. The format is binding.
For assay [5], the system named is poly r(AU).r(AU). Put plainly: Luminescence with poly r(AU).r(AU). The assay is classed as binding. The source says:
It appears then that luminescence is observed only when the ruthenium complex is intercalated in (or perhaps otherwise protected by) the nucleic acid structure. […] The relative luminescence of ruthenium complexes in the presence of various helical DNA's under varying conditions is shown in Table 16.

Assay [6] has as its system B-form DNA. Nature of the assay: Steady state luminescence polarization with B-form DNA. The assay is classed as binding. To be noted: 100 μM DNA. On the procedure: (§2) FIG. 22 Steady State Polarization of Ru(bpy)2 (dppz)^2+ with B and Z-form DNA Under the conditions that provide B-form (lower curve) DNA the highest measured polarization is 0.15 with a limiting polarization 0.10. Under the conditions that provide Z-DNA (upper curve) the highest polarization is 0.35 with a limiting polarization of 0.14. Ru(bpy)2 (dppz)^2+ 10 μM, poly d(GC) d(GC) 100 μM, λex =482 nm.
To further test the extent of intercalation of this complex a study of the steady state luminescence polarization of the complex bound to each form of DNA was made. These experiments give information on how rigidly the complex is held by the DNA. […] This reflects a situation where the complex is completely bound to the right-handed helix. As the concentration of Ru(bpy)2 (dppz)^2+ increases, the polarization decreases to limiting value (0.10) at a complex:base pair ratio of 1:10.
To further test the extent of intercalation of this complex we studied the steady state luminescence polarization of the complex bound to each form of DNA. These experiments give information on how rigidly the complex is held by the DNA. […] This reflects a situation where the complex is completely bound to the right-handed helix. As the concentration of Ru(bpy)2 (dppz)^2+ increases, the polarization decreases to a limiting value (0.10) at a complex: base pair rtio of 1:10.

Assay [7] concerns Z-form DNA. Nature of the assay: Steady state luminescence polarization with Z-form DNA. The format is binding. The protocol:
as §2
Similarly, when 1 μM Ru(bpy)2 (dppz)^2+ is titrated into poly d(GC).d(GC) (100 μM) in the Z-form, luminescence polarization is also observed, but in this case the value is 0.35, over double the value found with the analogous solution with B-form. […] As more complex is added the observed polarization reduces to a limiting value of 0.14, still higher than the analogous sample with B-form, thus further confirming the Z-form is a more rigid structure than the B-form.

Assay [8] has as its system electrophoresed DNA in agarose gel. Nature of the assay: Staining of DNA in agarose gels. The note with it: in words. The source says:
One interesting application is the binding of this complex to DNA that has been electrophoresed in a agarose gel.

Where [9] appears, read: 10 μM complex, 100 μM DNA, buffer R-L.

For the compound `[Ru+2].c1ccc(-c2ccccn2)nc1.c1ccc(-c2ccccn2)nc1.c1ccc2nc3c4cccnc4c4ncccc4c3nc2c1` [Ru(bpy)2 (dppz)^2+], the “Rel. Lumi.” value in assay [1] (Buffer (50.0 mM NaCl), 25) came out at 0.55; in assay [1] (Buffer (50.0 mM NaCl), 75) it was 0.53; in assay [1] (Buffer** (0.5 mM NaCl), 25) it was 0.61; in assay [1] (Buffer** (0.5 mM NaCl), 35) it was 0.06; in assay [1] (Buffer** (0.5 mM NaCl), 45), 0.59; in assay [1] (Buffer** (0.5 mM NaCl), 55), 0.55. In addition, the “Rel. Lumi.” value in assay [1] (Buffer** (0.5 mM NaCl), 70) is 0.47; in assay [1] (Buffer** (0.5 mM NaCl), 90), 0.23; in assay [2] (Buffer (50.0 mM NaCl), poly d(GC).d(GC), 25), 0.72; in assay [4], 0.68; in assay [5] (Buffer (50.0 mM NaCl), 25) it was 0.01. In addition, the “luminescence with B-form DNA” value in assay [2] (10 μM complex, 100 μM DNA) is “highly luminescent”. For the same compound, the “luminescence λmax with B-form DNA” value in assay [2] (10 μM complex, 100 μM DNA) is listed as 628 nm. The “luminescence with Z-form DNA” value in assay [3] (setting [9]) is reported as “highly luminescent”. The “luminescence λmax with Z-form DNA” value in assay [3] (setting [9]) is on record as 640 nm. For the same compound, the “effect on Z to B transition” value in assay [3] (circular dichroism, over hours) was “does not cause the Z to B transition”. For the same compound, the “luminescence with poly r(AU).r(AU)” value in assay [5] (10 μM complex, 100 μM RNA, buffer R) is recorded as “no luminescence”. The “highest luminescence polarization, B-form” value in assay [6] (1 μM probe) was determined as 0.15. In assay [6], the “limiting luminescence polarization, B-form” value is reported as 0.10. In addition, in assay [7] (1 μM complex, 100 μM DNA), the “highest luminescence polarization, Z-form” value was determined as 0.35. The “limiting luminescence polarization, Z-form” value in assay [7] (100 μM DNA) is 0.14. In assay [7] (in words), the “relative strength of binding, Z-form vs B-form” value was “binds better to the Z-form; also recorded: held more rigidly by Z-form than by the analogous B-form”. Further, in assay [8], the “staining of DNA in agarose gels” value was “no background luminescence from the complex bound to agarose”.
